Key:
[1] = test system: TL-Om1 cells; assay: ADCC of mogamulizumab against TL-Om1 cells by human PBMCs pre-incubated in conditioned medium; assay type: cell-based
Procedure: (§1) KATO-III cells (1.25×10^6 cells) were treated with 25 ng/mL recombinant human IFN-γ. […] Three days later, cells and supernatants were separated by centrifugation. The supernatants were used as conditioned medium. The conditioned medium was used for incubation of human PBMCs or NK cells (section 2.4.2), and measurement of Kyn and Trp (section 2.4.4).
(§2) NK cells were isolated from human PBMCs using NK isolation kit (Miltenyi Biotec, Cat. No. 130-092-657) and autoMACS instrument. Human PBMCs or NK cells were cultured in the conditioned medium (section 2.4.1) in a CO2 incubator. After 7 days, cells were harvested and counted, and used as effector cells. […] The radioactivity was counted with a microplate scintillation counter (TopCount NXT, PerkinElmer).
(§3) The percentage of cytotoxicity was calculated according to the following formula: […]
(§4) E is the experimental released radioactivity (cpm), S is the mean of spontaneous released radioactivity (cpm) by adding the assay medium instead of effector cells and antibody, and M is the mean of maximum released radioactivity (cpm) by adding 10 vol % Triton™ X-100 (Sigma-Aldrich, Cat. No. T9284-100ML) instead of effector cells and antibody. […]

[2] = test system: HH cells; assay: ADCC of mogamulizumab against HH cells by human PBMCs pre-incubated in conditioned medium; assay type: cell-based
Procedure: as §1, §2, §3, §4

[3] = test system: SK-BR-3 cells; assay: ADCC of trastuzumab against SK-BR-3 cells by human PBMCs pre-incubated in conditioned medium; assay type: cell-based; details: human PBMCs pre-incubated 7 days in conditioned medium of KATO-III + IFN-γ + 100 nmol/L compound
Procedure: as §1
(§5) NK cells were isolated from human PBMCs using NK isolation kit (Miltenyi Biotec, Cat. No. 130-092-657) and autoMACS instrument. Human PBMCs or NK cells were cultured in the conditioned medium (section 2.4.1) in a CO2 incubator. After 7 days, cells were harvested and counted, and used as effector cells. PBMCs and NK cells used as effector cells were suspended in the assay medium (RPMI1640 containing 10 vol % heat-inactivated fetal bovine serum and 1 vol % Penicillin-Streptomycin) to 5×10^6 cells/mL (PBMCs) or 4×10^5 cells/mL (NK cells). TL-Om1 cells, HH cells, SK-BR-3 cells, Raji cells or A431 cells (1×10^6 cells/each cell line) were labeled with 1.85 MBq of Na2^51CrO4 (PerkinElmer) for over 1 hour at 37° C. in a CO2 incubator. The cells were washed 3 times with assay medium. The radiolabeled cells used as target cells were suspended in 5 mL of the assay medium to 2×10^5 cells/mL. […]

[4] = test system: Raji cells; assay: ADCC of rituximab against Raji cells by human PBMCs pre-incubated in conditioned medium; assay type: cell-based; details: human PBMCs pre-incubated 7 days in conditioned medium of KATO-III + IFN-γ + 100 nmol/L compound
Procedure: as §1, §5

[5] = test system: A431 cells; assay: ADCC of cetuximab against A431 cells by human PBMCs pre-incubated in conditioned medium; assay type: cell-based; details: human PBMCs pre-incubated 7 days in conditioned medium of KATO-III + IFN-γ + 100 nmol/L compound
Procedure: as §1, §5

[6] = test system: TL-Om1 cells; assay: ADCC of mogamulizumab against TL-Om1 cells by purified human NK cells pre-incubated in conditioned medium; assay type: cell-based
Procedure: as §1, §2, §3, §4

[7] = test system: TL-Om1 cells; assay: ADCC of mogamulizumab against TL-Om1 cells by human PBMCs pre-incubated in medium containing the compound itself; assay type: cell-based; details: human PBMCs pre-incubated in medium containing 100 nmol/L compound for 7 days
Procedure: NK cells were isolated from human PBMCs using NK isolation kit (Miltenyi Biotec, Cat. No. 130-092-657) and autoMACS instrument. Human PBMCs or NK cells were cultured in the conditioned medium (section 2.4.1) in a CO2 incubator. After 7 days, cells were harvested and counted, and used as effector cells. PBMCs and NK cells used as effector cells were suspended in the assay medium (RPMI1640 containing 10 vol % heat-inactivated fetal bovine serum and 1 vol % Penicillin-Streptomycin) to 5×10^6 cells/mL (PBMCs) or 4×10^5 cells/mL (NK cells). TL-Om1 cells, HH cells, SK-BR-3 cells, Raji cells or A431 cells (1×10^6 cells/each cell line) were labeled with 1.85 MBq of Na2^51CrO4 (PerkinElmer) for over 1 hour at 37° C. in a CO2 incubator. The cells were washed 3 times with assay medium. The radiolabeled cells used as target cells were suspended in 5 mL of the assay medium to 2×10^5 cells/mL. […] Fifty μL of the target cells (1×10^4 cells) were plated into 96-well round bottomed culture plates and mixed with 50 μL of antibody dilutions prepared as described above and 50 μL of the effector cells (2.5×10^5 cells). The culture plates were briefly centrifuged at 4° C. and incubated at 37° C. in a CO2 incubator for about 4 hours. […] The radioactivity was counted with a microplate scintillation counter (TopCount NXT, PerkinElmer).

[8] = test system: SKOV3 cells; assay: Cytotoxicity of PBMCs against SKOV3 cells with or without Antibody C1 (51Cr release); assay type: cell-based, human; details: PBMCs pre-incubated 7 days in conditioned medium of SKOV3 + 50 ng/mL IFNγ + 100 nmol/L compound, vs conditioned medium DMSO
Procedure: The supernatants of each culture were used as the conditioned medium for pre-incubation of PBMCs.
SKOV3 cells were detached from culture flasks by TrypLE Express (GIBCO). The live cells were adjusted to 1.0×10^6 cells by the ADCC assay medium [RPMI1640 without phenol red (GIBCO) with 10 vol % of dialyzed and heat-inactivated FCS(GIBCO)]. Then, the cells were labeled with approx. 3.7 MBq of Na2^51CrO4 (PerkinElmer) for over 1 hour at 37° C. in a CO2 incubator. The cells were washed three times, and adjusted to 2.0×10^5 cells/mL (1×10^4 cells/50 μL) as the target cells using the ADCC assay medium.
Human PBMCs were cultured in 25 mL of the conditioned medium for 7 days. […]
The cytotoxicity was quantified by measurement of radioactivity in the supernatant of each assay well. […]
Total, T spo, M, or Assay sample was defined and prepared as follows. • Total: Target cell total radioactivity control. This sample was prepared by mixing 50 μL of target cell, 15 μL of detergent (10×Lysis Solution, Promega), and 85 μL of the ADCC assay medium. • T spo: Target cell spontaneous radioactivity control. […]
Each sample was prepared in triplicate. […] The radioactivity (cpm) was counted with a microplate scintillation counter (TopCount NXT, PerkinElmer).
The cytotoxicity (%) was calculated by the following equations using the cpm of each well. […]

[9] = test system: TL-Om1 cells; assay: ADCC of mogamulizumab against TL-Om1 cells by human PBMCs pre-incubated in conditioned medium of shRNA KATO-III cells; assay type: cell-based; details: PBMCs pre-incubated in conditioned medium 3 (parent + IFN-γ) or 4 (NegaCTRL shRNA + IFN-γ) compared with conditioned medium 1 or 2
Procedure: Parental KATO-III or KATO-III cells stably expressing IDO1 shRNA or NegaCTRL shRNA (1.25×10^6 cells) were treated with 25 ng/mL recombinant human IFN-γ. Cells were incubated in a CO2 incubator. Three days later, cells and supernatants were separated by centrifugation. The supernatants were used as conditioned medium. The conditioned medium was used for incubation of human PBMCs (Section 7.4.5), and measurement of Kyn and Trp (Section 7.4.7).
Human PBMCs were cultured in each conditioned medium (Section 7.4.4) in a CO2 incubator. After 7 days, cells were harvested and counted, and used as effector cells. PBMCs used as effector cells were suspended in the assay medium (RPMI1640 containing 10 vol % heat-inactivated fetal bovine serum and 1 vol % Penicillin-Streptomycin) to 5×10^6 cells/mL. […] The radioactivity was counted with a microplate scintillation counter (TopCount NXT, PerkinElmer).
as §3, §4

Molecule: NS(=O)(=O)NCCNc1nonc1C(=NO)Nc1ccc(F)c(Br)c1 [Compound B1, 4-({2-[(aminosulfonyl)amino]ethyl}amino)-N-(3-bromo-4-fluorophenyl)-N′-hydroxy-1,2,5-oxadiazole-3-carboximidamide]
- effect on the attenuation of ADCC of mogamulizumab against TL-Om1 cells ([1]; human PBMCs (donor 1, donor 2) pre-incubated 7 days in conditioned medium of KATO-III + IFN-γ + 100 nmol/L compound): canceled the attenuation
- effect on the attenuation of ADCC of mogamulizumab against HH cells ([2]; human PBMCs pre-incubated 7 days in conditioned medium of KATO-III + IFN-γ + 100 nmol/L compound): canceled the attenuation
- effect on the attenuation of ADCC of trastuzumab against SK-BR-3 cells [3]: canceled the attenuation
- effect on the attenuation of ADCC of rituximab against Raji cells [4]: canceled the attenuation
- effect on the attenuation of ADCC of cetuximab against A431 cells [5]: canceled the attenuation
- effect on the attenuation of ADCC of mogamulizumab by NK cells ([6]; purified human NK cells pre-incubated in conditioned medium of KATO-III + IFN-γ + 100 nmol/L compound, TL-Om1 target cells): canceled
- effect of the compound itself on ADCC of mogamulizumab [7]: did not influence
- cytotoxicity without Antibody C1 (natural killing activity) of PBMCs against SKOV3 cells [8]: higher
- cytotoxicity of PBMCs against SKOV3 cells in the presence of Antibody C1 ([8]; Antibody C1 0.033-333 ng/mL): higher

B1: mogamulizumab: humanized anti CCR4 monoclonal antibody (antibody, chains of the INN, looked up, V domains shown)
VH: EVQLVESGGDLVQPGRSLRLSCAASGFIFSNYGMSWVRQAPGKGLEWVATISSASTYSYYPDSVKGRFTISRDNAKNSLYLQMNSLRVEDTALYYCGRHSDGNFAFGYWGQGTLVTVSS
VL: DVLMTQSPLSLPVTPGEPASISCRSSRNIVHINGDTYLEWYLQKPGQSPQLLIYKVSNRFSGVPDRFSGSGSGTDFTLKISRVEAEDVGVYYCFQGSLLPWTFGQGTKVEIK
- ADCC against TL-Om1 cells ([1]; PBMCs (donor 1, donor 2) pre-incubated in conditioned medium 2 (KATO-III + IFN-γ) compared with conditioned medium 1): attenuated
- ADCC against HH cells ([2]; PBMCs pre-incubated in conditioned medium 2 (KATO-III + IFN-γ)): attenuated
- ADCC by NK cells against TL-Om1 cells ([6]; purified NK cells pre-incubated in conditioned medium 2 (KATO-III + IFN-γ)): attenuated
- ADCC against TL-Om1 cells [9]: attenuated
